One data set has as its system sGC. Put plainly: cGMP neuronal cell-based assay (rat primary neurons). Particulars: rat primary hippocampal neurons, DETA-NO 10 μM or 30 μM, cGMP by LC-MS/MS; read-out: sGC Neuron EC50. The protocol: Rat primary neurons were isolated from fetuses of 18-day pregnant Sprague-Dawley females. The fetuses were collected in Hanks' balanced salt solution (HBSS) and brains were rapidly removed. The cerebral hippocampi were isolated and mechanically fragmented. Further tissue digestion was performed with 0.25% (wt/vol) trypsin solution in HBSS without Ca2+ and Mg2+ for 15 min at 37° C. After trypsination, cells were washed and resuspended in neurobasal medium supplemented with 0.5 mM L-glutamine, 12.5 uM glutamic acid, 2% B-27 and 100 U/mL penicillin, and 100 μg/mL streptomycin. Cells were plated at a density of 26×10^3 or 3×10^4 or 4×10^4 cells/well in a poly-D-lysine coated 384-well flat clear-bottom plate (Corning Cat No 354662). Cells were incubated 6-7 days at 37° C. in a humidified chamber with 5% CO2. Media was removed and cells were washed 1× with HBSS containing Ca2+ and Mg2+, and replaced with 40 uL HBSS containing 0.5 mM IBMX, and incubated for 15 minutes at 37° C. 10 uL of a 5× stock of test compounds with diethylenetriamine NONOate (DETA-NO) was added. Final concentration of DETA-NO was either 10 μM or 30 μM. Cells were incubated for 20 min at 37° C. Medium was removed, 50 uL of ice-cold 10% acetic acid was added, and incubated for 60 minutes at 4° C. Following centrifugation at 4° C. for 5 minutes at 1000×g to pellet cell debris, the supernatant was aspirated to a clean plate and the samples were analyzed for cGMP content. cGMP concentrations were determined from each sample using LC-MS/MS.
(§1) Concentration response data were analyzed using a 4-parameter fit (log (agonist) vs. response-variable slope). The EC50 was interpolated from the curve fit and is defined as the concentration at which the compound elicits 50% of its maximal response. When the experiment was carried out multiple times for a given compound, the geometrical mean of all experiments is reported.

A further data set relates to sGC enzyme. The experiment in a line: cGMP GloSensor cell-based assay, 384-well format (HEK293). Further details: species or system human. The conditions noted are these: HEK293 GloSensor 40F cGMP cells, 10 μM DETA-NONOate, geometrical mean; read-out: Glo EC50.
Text: Human embryonic kidney cells (HEK293) cells expressing GloSensor™ 40F cGMP (Part No: CS182801, Promega) were used to evaluate the activity of test compounds. The luminescent biosensors (engineered luciferase) that were incorporated into these cells detect cGMP formed by the compounds stimulating the sGC enzyme and emit luminescence.
cGMP GloSensor cells were maintained in Dulbecco's Modification of Eagle's Medium (DMEM) supplemented with fetal bovine serum (FBS, 10% final) and hygromycine (200 ug/ml). The day before assay, cells were plated in DMEM with 10% FBS in a 50 μL volume at a density of 1.5×10^4 cells/well in a poly-D-lysine coated 384-well flat white-bottom plate (Corning Cat No 35661). Cells were incubated overnight at 37° C. in a humidified chamber with 5% CO2. The next day, medium was removed and cells were replaced with 40 ul/well of GloSensor™, 2 mM (Promega Cat No E1291). Cells were treated for 90 minutes at 25° C. to allow the substrate to equilibrate in the cells. Test compounds and Diethylenetriamine NONOate (DETA-NONOate) was diluted to 3 mM (20×) in serum-free CO2 independent medium and serially diluted at 4× dilutions to create 5× dose curve from which 10 ul was added to the wells (x μM concentration for test compound solution and 10 μM concentration for DETA-NONOate solution; wherein x is one of the following final concentrations: 30 μM, 7.5 μM, 1.9 μM, 469 nM, 117 nM, 29.3 nM, 7.3 nM, 1.83 nM, 0.46 nM, 0.11 nM, 0.03 nM) For the kinetics studies, luminescense was measured right away for 0.2 sec per well with Envision (Perkin Elmer). For endpoint SAR screening, data were collected after 55 min incubation at room temperature.
as §1

A short description of data set [1]: Rat cerebrospinal fluid (CSF) pharmacokinetics. In kind it is in vivo. Particulars: male, Sprague-Dawley, rat CSF/unbound plasma. As to the method:
PK in rats was determined following oral dosing. For the oral (PO) experiments, a group of 6 male Sprague-Dawley rats with an indwelling catheter placed in the cisterna magna were used. The PO group was dosed with 3.0, or 10 mg/kg of a compound formulated as a solution in PEG400 or suspension in 0.5% Tween 80 and 0.5% Methylcellulose in water. PO doses were administered by oral gavage and delivered to the stomach using a syringe and gavage tube. Following oral dosage administration, the gavage tube was flushed with approximately 0.5 mL of water to ensure complete delivery of the full dose.
Plasma samples were collected as follows: samples of CSF and blood were collected at 1 hour, 2, and optionally at 4 hours post-dosing. CSF samples (0.05 mL) were collected through the intracisternal catheter. Blood samples (0.25 mL) were collected through tail nick sampling. These samples were kept on ice until processed for plasma. Blood samples were centrifuged at 3200 rpm for 5 minutes at approximately 5° C. within 1 hour of collection. Plasma was directly transferred to individual Eppendorf tubes (0.125 mL). Plug caps were placed on the tubes and the tubes frozen at approximately −70° C. and stored until analysis. Plasma and CSF was collected and analyzed for the presence of a compound.
The compound in question and the internal standard were extracted from plasma by precipitation and from CSF by either precipitation or dilution. Samples were analyzed using liquid chromatography (LC) with tandem mass spectrometric detection (MS/MS) using electrospray ionization. The standard curve ranged from 0.1 to 1000 ng/mL. Results of the compounds described herein in this assay are illustrated in Table G below (for a 10 mg/kg dose and/or 3 mg/kg of the compound). Compound concentrations from several animals were combined to give the geometrical mean at each specific dosage and timepoint.
Kp,uu is defined as the concentration ratio of unbound drug in CSF to unbound drug in plasma. Unbound drug in plasma (or free plasma concentration) is calculated by multiplying the total plasma concentration by the unbound fraction as determined by plasma protein binding. The CSF concentration is then divided by the free plasma concentration to determine the Kp,uu. (See e.g., Di et al., J. Med. Chem., 56, 2-12 (2013))

A word on the EC50: it is the concentration that produces a half-maximal response. For `Oc1nc(-c2cn3ccnc3c(Cc3cccc(F)c3F)n2)ncc1F` [Compound I-4, 2-(8-(2,3-Difluorobenzyl)imidazo[1,2-a]pyrazin-6-yl)-5-fluoropyrimidin-4-ol], the EC50 in the data set on sGC was at most 100 nM. In the data set on sGC enzyme, the EC50 lay in the range of 100 to 1000 nM. Also, in data set [1] (PO 3 mg/kg), the Kp uu at 1 h is at most 1, the Kp uu at 2 h fell in the range of 1 to 2 and the Kp uu at 4 h fell in the range of 1 to 2.

As to `Oc1nc(-c2cn3ccnc3c(Cc3cc(F)ccc3F)n2)ncc1Cl` [Compound I-16, 5-chloro-2-(8-(2,5-difluorobenzyl)imidazo[1,2-a]pyrazin-6-yl)pyrimidin-4-ol], in the data set with sGC, the EC50 was at most 100 nM. Moreover, the EC50 with sGC enzyme is at most 100 nM. In data set [1] (PO 3 mg/kg), this compound yielded a Kp uu at 1 h of over 3, a Kp uu at 2 h of over 3 and a Kp uu at 4 h of over 3.

On to `Oc1nc(-c2cn3c(F)cnc3c(Cc3cc(F)ccc3F)n2)ncc1F` [Compound I-5], for which the EC50 with sGC was at most 100 nM. In addition, the EC50 with sGC enzyme is at most 100 nM. In data set [1] (PO 3 mg/kg), this compound gave a Kp uu at 1 h of 2 to 3, a Kp uu at 2 h of 2 to 3 and a Kp uu at 4 h of 2 to 3.

Regarding `Oc1nc(-c2cn3ccnc3c(Cc3ccccc3)n2)ncc1F` [Compound I-2, 2-(8-Benzylimidazo[1,2-a]pyrazin-6-yl)-5-fluoropyrimidin-4-ol], the EC50 with sGC and in the data set with sGC enzyme was 100 to 1000 nM throughout.

Regarding `Oc1nc(-c2cn3ccnc3c(Cc3ccccc3F)n2)ncc1F` [Compound I-21], the EC50 with sGC was at most 100 nM; with sGC enzyme, 100 to 1000 nM.

As to `Cc1cc(F)c(Cc2nc(-c3ncc(F)c(O)n3)cn3ccnc23)cc1F` [Compound I-14, 5-fluoro-2-(8-(2,5-difluoro-4-methylbenzyl)imidazo[1,2-a]pyrazin-6-yl)pyrimidin-4-ol], in the data set with sGC, the EC50 was at most 100 nM. In the data set on sGC enzyme, the EC50 is at most 100 nM. In data set [1] (PO 3 mg/kg), this compound showed a Kp uu at 1 h of over 3, a Kp uu at 2 h of over 3 and a Kp uu at 4 h of over 3. In data set [1] (PO 10 mg/kg), this compound had a Kp uu at 1 h of over 3, a Kp uu at 2 h of over 3 and a Kp uu at 4 h of 2 to 3.

For `Oc1nc(-c2cn3ncnc3c(Cc3ccccc3F)n2)ncc1F` [Compound I-23], the EC50 in the data set on sGC was at most 100 nM; with sGC enzyme it was 100 to 1000 nM.

Regarding `Oc1nc(-c2cn3ccnc3c(Cc3cc(F)ccc3F)n2)ncc1F` [Compound I-20, 5-fluoro-2-(8-(2,5-difluorobenzyl)imidazo[1,2-a]pyrazin-6-yl)pyrimidin-4-ol], in the data set with sGC, the EC50 is at most 100 nM. Besides, in the data set on sGC enzyme, the EC50 is at most 100 nM. Moreover, in data set [1] (PO 3 mg/kg), the Kp uu at 1 h was in the range of 2 to 3, the Kp uu at 2 h was in the range of 2 to 3 and the Kp uu at 4 h was in the range of 2 to 3. In data set [1] (PO 10 mg/kg), this compound displayed a Kp uu at 1 h of 1 to 2, a Kp uu at 2 h of 2 to 3 and a Kp uu at 4 h of 2 to 3.

In the case of `Cc1cc(F)c(Cc2nc(-c3ncc(F)c(O)n3)cn3c(F)cnc23)cc1F` [Compound I-18], in the data set with sGC enzyme, the EC50 is at most 100 nM. Also, in data set [1] (PO 3 mg/kg), the Kp uu at 1 h lay in the range of 1 to 2, the Kp uu at 2 h was 1 to 2 and the Kp uu at 4 h lay in the range of 1 to 2.

With `Cc1cc(F)c(Cc2nc(-c3ncc(F)c(O)n3)cn3ncnc23)cc1F` [Compound I-19, 5-Fluoro-2-(8-(2,5-difluoro-4-methylbenzyl)-[1,2,4]triazolo[1,5-a]pyrazin-6-yl)pyrimidin-4-ol], the EC50 in the data set on sGC was at most 100 nM; in the data set on sGC enzyme, 100 to 1000 nM.

Turning to `Cc1cc(F)c(Cc2nc(-c3nccc(O)n3)cn3ccnc23)cc1F` [Compound I-15, 2-(8-(2,5-difluoro-4-methylbenzyl)imidazo[1,2-a]pyrazin-6-yl)pyrimidin-4-ol], the EC50 in the data set with sGC and in the data set on sGC enzyme was 100 to 1000 nM throughout.

The values are drawn from patent US20240207265A1, “TREATMENT OF CNS DISEASES WITH sGC STIMULATORS” (Tisento Therapeutics Inc., priority 2021, published 2024).
